# Assay results published in the PolyMetriX glass transition set.
row,glass transition temperature [°C],SMILES
1,282.50,*C(=O)c1ccc2c(c1)C(=O)N(c1ccc(Oc3ccccc3N3C(=O)c4ccc(*)cc4C3=O)cc1)C2=O (repeat unit)
2,203.50,*Oc1ccc(-c2ccc(Oc3ccc(-c4ccc(-c5ccc(*)c(C(F)(F)F)c5)cc4)cc3C(F)(F)F)cc2)cc1 (repeat unit)
3,87.10,*CC(*)(C)C(=O)OCCCCCCCCCCOc1ccc(C#Cc2cc(OC)c(/C=C/c3ccncc3)cc2OC)cc1 (repeat unit)
4,115.00,*C1C(=O)N(CCCCOc2ccc(-c3ccc(C#N)cc3)cc2)C(=O)C1* (repeat unit)
5,228.50,*Nc1ccc(NC(=O)c2ccc(NC(=O)CCCCCCCCC(=O)Nc3ccc(C(*)=O)cc3)cc2)cc1C(=O)OCCCCCCCCCCCC (repeat unit)
6,63.00,*Oc1ccc(CC(NC(=O)CCc2ccc(OC(=O)COCCOCC(*)=O)cc2)C(=O)OC)cc1 (repeat unit)
7,120.00,*Oc1ccc(C(=O)c2ccc(C(=O)c3ccc(Oc4ccc(Cc5ccc(*)cc5)cc4)cc3)cc2)cc1 (repeat unit)
8,161.00,*Oc1ccc(/C(C)=N/c2ccc(/N=C(\C)c3ccc(Oc4ccc(C(C)(C)c5ccc(*)cc5)cc4)cc3)cc2)cc1 (repeat unit)
9,266.00,*CC(=O)Nc1ccc(Cc2ccc(NC(=O)c3ccc4c(c3)C(=O)N(*)C4=O)cc2)cc1 (repeat unit)
10,251.00,*Oc1c(C)cc(C2(c3cc(C)c(Oc4ccc(C(=O)c5ccc(*)cc5)cc4)c(C)c3)CCC3CCCCC3C2)cc1C (repeat unit)
11,181.00,*Oc1ccc(OC(=O)c2ccc(C(*)=O)cc2Sc2ccccc2)cc1 (repeat unit)
12,51.00,*c1ccc(-c2cc(CCCCCCBr)c(*)s2)s1 (repeat unit)
13,165.00,*Oc1ccc(S(=O)c2ccc(Oc3ccc(C(C)(C)c4ccc(*)cc4)cc3)cc2)cc1 (repeat unit)
14,194.00,*c1ccc(OCOc2ccc(-c3nc(-c4ccc([N+](=O)[O-])cc4)oc3*)cc2)cc1 (repeat unit)
15,146.00,*Oc1ccc(Oc2ccc(C(=O)c3ccc(*)cc3)cc2)cc1-c1cc(C(F)(F)F)cc(C(F)(F)F)c1 (repeat unit)
16,-65.00,*CC(*)c1ccc(CCCCCCCCCC)cc1 (repeat unit)
17,-1.00,*c1ccc(-c2ccc(-c3ccc(-c4ccc([Si](CCCC)(CCCC)[Si](*)(CCCC)CCCC)s4)s3)s2)s1 (repeat unit)
18,122.00,*CCCCOC(=O)Nc1ccc(Cc2ccc(NC(=O)OCCCCn3c4ccccc4c4cc(/C=C(\C#N)C(=O)OCCCCCCOC(=O)/C(C#N)=C/c5ccc6c(c5)c5ccccc5n6*)ccc43)cc2)cc1 (repeat unit)
19,119.00,*C(=O)OCC(COc1ccc(/N=N/c2ccc(C#N)cc2)cc1)OC(=O)c1ccc(*)s1 (repeat unit)
20,107.00,*CC(*)(C)C(=O)OCCN(C)c1ccc(/C=C/c2ccc([N+](=O)[O-])cc2)cc1 (repeat unit)
21,343.00,*c1ccc(C(c2ccc(N3C(=O)c4ccc(-c5ccc6c(c5)C(=O)N(*)C6=O)cc4C3=O)cc2)(C(F)(F)F)C(F)(F)F)cc1 (repeat unit)
22,45.00,*Oc1ccc(CC(NC(=O)CCc2ccc(OC(=O)CC(C)CCC(*)=O)cc2)C(=O)OC(C)CC)cc1 (repeat unit)
23,-17.00,*CCCCCCOC(=O)OCCCCCCCCOC(=O)OCCCCCCOc1ccc(Oc2ccc(O*)cc2)cc1 (repeat unit)
24,160.00,*Oc1ccc(C(C)(C)c2ccc(Oc3ccc(C(=O)c4ccc(C(=O)c5ccc(*)cc5)cc4)cc3)cc2)cc1 (repeat unit)
25,242.00,*Sc1ccc(Sc2ccc(Sc3ccc4c(c3)C(=O)N(N3C(=O)c5cccc(*)c5C3=O)C4=O)cc2)cc1 (repeat unit)
26,132.00,*CC(*)(C)C(=O)OCCCCn1c2ccccc2c2cc(/N=N/c3ccc([N+](=O)[O-])cc3[N+](=O)[O-])ccc21 (repeat unit)
27,68.00,*CCCOCCCCOCCCN1C(=O)c2ccc(C(=O)Oc3ccc4cc(OC(=O)c5ccc6c(c5)C(=O)N(*)C6=O)ccc4c3)cc2C1=O (repeat unit)
28,142.00,*c1ccc2c(c1)Sc1cc(-c3ccc(-c4ccc(*)s4)s3)ccc1N2CCCCCCCCCC (repeat unit)

# The remaining lines, values behind:
row,SMILES,glass transition temperature [°C]
1,*CCCCCCCCCCNC(=O)CCCCCCCCCCC(=O)N* (repeat unit),49.00
2,*CCC1C[N+](C)(C)CC1* (repeat unit),-6.70
3,*CC(*)c1ccccc1COCCC(C)C (repeat unit),78.00
4,*C(=O)Nc1ccc(-c2sc(-c3ccc(NC(=O)c4ccc5c(c4)C(=O)N(c4ccc(Oc6cccc7c(Oc8ccc(N9C(=O)c%10ccc(*)cc%10C9=O)cc8)cccc67)cc4)C5=O)cc3)c(-c3ccccc3)c2-c2ccccc2)cc1 (repeat unit),340.00
5,*CC(S*)c1ccccc1 (repeat unit),-2.50
6,*Oc1ccc(S(=O)(=O)c2ccc(Oc3c(C(C)C)cc(C(C)(C)c4cc(C(C)C)c(*)c(C(C)C)c4)cc3C(C)C)cc2)cc1 (repeat unit),175.00
7,*Oc1ccc(S(=O)(=O)c2ccc(Oc3c(C)cc(C(C)(C)c4cc(C)c(*)c(C)c4)cc3C)cc2C(O)(C(F)(F)F)C(F)(F)F)c(C(O)(C(F)(F)F)C(F)(F)F)c1 (repeat unit),187.00
8,*Nc1cc(NC(=O)c2cccc(C(*)=O)c2)cc(-c2nnc(-c3ccccn3)o2)c1 (repeat unit),155.00
9,*c1ccc(Cc2ccc(N3C(=O)C4CCC5C(=O)N(*)C(=O)C5C4C3=O)c(C)c2)cc1C (repeat unit),340.00
10,*NC(CCC(=O)OCCCCCC)C(*)=O (repeat unit),-25.00
11,*Oc1ccc(C(C)(C)c2cccc(C(C)(C)c3ccc(Oc4ccc(C(=O)Nc5cccc(NC(=O)c6ccc(*)cc6)c5)cc4)cc3)c2)cc1 (repeat unit),155.00
12,*Oc1ccc(C(C)(C)c2ccc(OC(=O)c3ccc4c(c3)C(C)(c3ccc(C(*)=O)cc3)CC4(C)C)cc2)cc1 (repeat unit),265.00
13,*c1cc(Br)c(OC(=O)c2ccc(C(=O)Oc3c(Br)cc(C4(*)OC(=O)c5ccccc54)cc3Br)cc2)c(Br)c1 (repeat unit),319.00
14,*C(=O)Nc1ccc(-c2ccc(NC(=O)c3ccc4c(c3)C(=O)N(c3cccc(P(=O)(c5ccccc5)c5cccc(N6C(=O)c7ccc(*)cc7C6=O)c5)c3)C4=O)cc2)cc1 (repeat unit),253.00
15,*C(=O)Nc1ccc(Oc2ccc(-c3ccc(Oc4ccc(NC(=O)c5ccc6c(c5)C(=O)N(c5cccc(N7C(=O)c8ccc(*)cc8C7=O)c5)C6=O)cc4)cc3)cc2)cc1 (repeat unit),292.00
16,*CC(F)(F)C(F)(F)C(F)(F)COC(=O)c1ccc(OCCCCC)c(C(=O)O*)c1 (repeat unit),9.00
17,*OC(=O)Oc1ccc(S(=O)(=O)c2ccc(OC(=O)OC3CC4CC(*)CC(C3)O4)cc2)cc1 (repeat unit),184.00
18,*CC(*)(C)C(=O)OCCF (repeat unit),90.00
19,*CC(*)(C)C(=O)O[Si](C)(C)C (repeat unit),97.50
20,*c1nc2cc(S(=O)(=O)c3ccc4oc(C5CCC(*)CC5)nc4c3)ccc2o1 (repeat unit),296.00

row,SMILES,glass transition temperature [°C]
1,*c1ccc(Oc2cccc(N3C(=O)c4ccc(Oc5cccc6c(Oc7ccc8c(c7)C(=O)N(*)C8=O)cccc56)cc4C3=O)c2)cc1 (repeat unit),235.00
2,*Oc1ccc(NC(=O)c2ccc(Oc3ccc(C(C)(C)c4cccc(C(C)(C)c5ccc(Oc6ccc(C(=O)Nc7ccc(*)cc7)cc6)cc5)c4)cc3)cc2)cc1 (repeat unit),155.00
3,*c1cccc(N2C(=O)c3ccc(Oc4c(C)cc(-c5cc(C)c(Oc6ccc7c(c6)C(=O)N(*)C7=O)c(C)c5)cc4C)cc3C2=O)c1 (repeat unit),295.00
4,*CC(SS*)c1ccccc1 (repeat unit),4.80
5,*OC(C)C(=O)OCC(*)=O (repeat unit),43.00
6,*CC(*)(C)C(=O)OCCCCc1ccccc1 (repeat unit),9.00
7,*CC(CC(Cl)(Cl)Cl)O* (repeat unit),-36.00
8,*CCCCCCCCNC(=O)CCCCC(=O)N* (repeat unit),50.00
9,*Oc1ccc(C(C)(C)c2ccc(C(C)(C)c3ccc(Oc4ccc(C(=O)Nc5cccc(NC(=O)c6ccc(*)cc6)c5)cc4)cc3)cc2)cc1 (repeat unit),173.00
10,*c1ccc(-c2cc(-c3ccc(-c4ccccc4)cc3)cc(-c3ccc(N4C(=O)c5ccc(NC(=O)Nc6cccc(NC(=O)Nc7ccc8c(c7)C(=O)N(*)C8=O)n6)cc5C4=O)cc3)n2)cc1 (repeat unit),248.00
11,*C(=O)Nc1ccc(S(=O)(=O)c2ccc(NC(=O)c3ccc4c(c3)C(=O)N(c3cc(-c5nc6ccccc6s5)cc(N5C(=O)c6ccc(*)cc6C5=O)c3)C4=O)cc2)cc1 (repeat unit),357.00
12,*OC(=O)C(NC(=O)CCCCCCCCC(=O)NC(C(=O)OC1COC2C(*)COC12)C(C)CC)C(C)CC (repeat unit),91.00
13,*CC(O)COc1ccc(S(=O)(=O)c2ccc(O*)c(C)c2)cc1C (repeat unit),132.50
14,*Oc1ccc(C2(c3ccc(OC(*)=O)cc3)CCCC2)cc1 (repeat unit),166.00
15,*OC(CCOc1ccccc1)CC(*)=O (repeat unit),20.00
16,*CCN(*)C(=O)CCC(=O)OC (repeat unit),31.00
17,*c1cc(/N=N/c2ccc(OC)cc2)cc(*)c1O (repeat unit),134.00
18,*CC(C)(CC)CO* (repeat unit),-47.00
19,*CC(COc1ccc(C(C)(C)c2ccc(O*)cc2)cc1)OC(=O)c1ccccc1 (repeat unit),65.00
